Legend:
[1] = system: Skin cancer cell line A375 cells; experiment: Antitumor test, mouse subcutaneous transplantation model, A375; type: in vivo; details: A375 in nude mice, 4 consecutive days, tumor measured next day
Source text: (§1) In vivo test of test compound: Antitumor test using mouse subcutaneous transplantation model
Skin cancer cell line A375 cells were dissociated from a culture flask by trypsin treatment, then suspended in a DMEM medium (Life Technologies Corp.) containing 10% FBS, and then centrifuged to remove the supernatant. The cells were washed with this medium twice and then suspended in PBS. The cell suspension was subcutaneously transplanted at a dose of 3×10^6 cells/mouse to the right axillary regions of 6-week-old nude mice (BALB/cAJc1-nu/nu, CLEA Japan, Inc.). The test was conducted by using cancer-bearing mice having an estimated tumor volume (major axis×minor axis×minor axis/2) of 75 to 150 mm3 and grouping the cancer-bearing mice without significant difference in average estimated tumor volume from a negative control group. The compound of Example 113 was suspended in solvent (EtOH/DMA/Solutol HS-15/PEG400/5% HMPC). The suspension was orally administered to each mouse twice a day (BID) at a dose of 50, 100, or 200 mg/kg for 4 consecutive days. On the next day, the tumor sizes were measured.
(§2) The rate of tumor growth inhibition was also calculated in this test according to the following expression and is shown in a table.
(§3) Rate of tumor growth inhibition (%)=100−(Average value of the tumor volumes of the test compound administration group)/(Average value of the tumor volumes of the vehicle administration group)×100.

[2] = system: Lung cancer cell line COR-L23 cells; experiment: Antitumor test, mouse subcutaneous transplantation model, COR-L23; type: in vivo; details: COR-L23 in nude mice, 4 consecutive days, tumor measured next day
Source text: as §1
Lung cancer cell line COR-L23 cells were dissociated from a culture flask by trypsin treatment, then suspended in an RPMI1640 medium containing 10% FBS, and then centrifuged to remove the supernatant. The cells were washed with this medium twice and then suspended in PBS. The cell suspension was subcutaneously transplanted at a dose of 5×10^6 cells/mouse to the right axillary regions of 6-week-old nude mice (BALB/cAJc1-nu/nu, CLEA Japan, Inc.). The test was conducted by using cancer-bearing mice having an estimated tumor volume (major axis×minor axis×minor axis/2) of 100 to 150 mm3 and grouping the cancer-bearing mice without significant difference in average estimated tumor volume from a negative control group. The compound of Example 113 was suspended in solvent (EtOH/DMA/Solutol HS-15/PEG400/5% HMPC). The suspension was orally administered to each mouse once a day (QD) at a dose of 75, 150, or 300 mg/kg for 4 consecutive days. On the next day, the tumor sizes were measured.
as §2, §3

[3] = system: human lymphoma cell line RAMOS cells; experiment: Cell growth inhibition test using RAMOS cell, MTT assay; type: cell-based; details: 50% growth inhibition concentration
In short: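 Cells in RPMI1640 with 10% FBS were exposed to compound (DMSO ≤1%) for 3 days at 37° C, 5% CO2. Viability was read by MTT (4 h, formazan in DMSO, OD 540/660 nm) against a day-0 plate; GI50 was interpolated from T/C % growth rates.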

[4] = system: Lymphoma cell line RAMOS cells; experiment: Antitumor test, mouse subcutaneous transplantation model, RAMOS; type: in vivo; details: RAMOS in SCID mice, 4 consecutive days, tumor measured next day
Source text: as §1
Lymphoma cell line RAMOS cells were suspended in a culture flask and then centrifuged to remove a supernatant. The cells were washed with PBS (phosphate buffered saline, Life Technologies Corp.) twice and then suspended in PBS. The cell suspension was subcutaneously transplanted at a dose of 1×10^7 cells/mouse to the right axillary regions of 6-week-old SCID mice (FOX CHASE SCID C.B.17/Icr-scid/scidJcl, CLEA Japan, Inc.). The test was conducted by using cancer-bearing mice having an estimated tumor volume (major axis×minor axis×minor axis/2) of 200 to 350 mm3 and grouping the cancer-bearing mice without significant difference in average estimated tumor volume from a negative control group. The compound of Example 113 was suspended in a solvent (EtOH/DMA/Solutol HS-15/PEG400/5% HMPC). The suspension was orally administered to each mouse twice a day (BID) at a dose of 25, 50, 100, or 200 mg/kg for 4 consecutive days. On the next day, the tumor sizes were measured.
as §2, §3

For `CCOc1cc(F)c(Cl)cc1C(=O)NCC(C)(C)CC(=O)Nc1c(COC)n(C)n(-c2ccccc2)c1=O` [Example 113, 5-Chloro-2-ethoxy-4-fluoro-N-(4-{[5-(methoxymethyl)-1-methyl-3-oxo-2-phenyl-2,3-dihydro-1H-pyrazol-4-yl]amino}-2,2-dimethyl-4-oxobutyl)benzamide], the “Rate of tumor growth inhibition (%)” value ([1]; 50 mg/kg orally BID) was 19%, the “Rate of tumor growth inhibition (%)” value ([1]; 100 mg/kg orally BID) was 61% and the “Rate of tumor growth inhibition (%)” value ([1]; 200 mg/kg orally BID) was 86%. For the same compound, the “Rate of tumor growth inhibition (%)” value ([2]; 75 mg/kg orally QD) was 39%, the “Rate of tumor growth inhibition (%)” value ([2]; 150 mg/kg orally QD) was 52% and the “Rate of tumor growth inhibition (%)” value ([2]; 300 mg/kg orally QD) was 81%. The GI50 [3] was 47 nM, the “Rate of tumor growth inhibition (%)” value ([4]; 25 mg/kg orally BID) was 35% and the “Rate of tumor growth inhibition (%)” value ([4]; 50 mg/kg orally BID) was 56%. For the same compound, the “Rate of tumor growth inhibition (%)” value ([4]; 100 mg/kg orally BID) was 72% and the “Rate of tumor growth inhibition (%)” value ([4]; 200 mg/kg orally BID) was 75%.

Source: US20170107207A1, “AMINOPYRAZOLONE DERIVATIVE” (DAIICHI SANKYO COMPANY, LIMITED, priority 2014, published 2017)
